The source of these data is patent publication US5677419A, “Cyclic vasoactive peptide analogs” (Hoffmann-La Roche Inc., priority 1994, dated 1997).

For assay [1], the system named is guinea pig tracheal smooth muscle. Nature of the assay: Tracheal relaxant activity of VIP analogs on isolated guinea pig tracheal rings. It counts as cell-based. The note with it: cumulative concentration response, relaxation as % of maximum response to VIP (10^-6 M=100%), three tissues pooled, linear regression. In short, it runs like this:
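Male guinea pig tracheal rings under 1.5 g resting tension in Krebs at 37° C, 95% O2/5% CO2, isometric tension. Cumulative concentration-response curves; relaxation as % of response to 10^-6 M VIP added at end; three tissues pooled, EC50 by linear regression.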

Assay [2] deals with guinea pigs. The assay can be described thus: In vivo bronchodilator activity by tracheal instillation against histamine challenge. The following applies: anesthetized male guinea pigs, inhibition of histamine (i.v.)-induced rise in tracheal pressure. More on the design: species or system guinea pig. In short, it runs like this:
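Urethane-anaesthetised male Hartley guinea pigs (400-600 g) received compound in water by intratracheal instillation, then were paralysed, ventilated and challenged with histamine […] i.v. Tracheal pressure change gave % inhibition (≥3 animals/group); ED50 from log dose-response; duration as time until inhibition fell to 40%.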

The structures appear in SMILES notation. Where a SMILES comes first, the peptide text is derived from it. Bridges are numbered along the chain shown (N, C = ends). [ ]: non-standard residue; d: D form. Tyr(3-F) = N[C@@H](Cc1ccc(O)c(F)c1)C(=O)O; Tyr(3-OMe) = COc1cc(C[C@H](N)C(=O)O)ccc1O; Phe(4-NH2) = Nc1ccc(C[C@H](N)C(=O)O)cc1; Nle = CCCC[C@H](N)C(=O)O

One may read the EC50 as the concentration needed to bring the measured effect to its halfway point. A low value points to higher potency in that assay. The compound `CCCC[C@H](NC(=O)[C@H](CCC(N)=O)NC(=O)[C@H](CCCCN)NC(=O)[C@H](CCCNC(=N)N)NC(=O)[C@H](CC(C)C)NC(=O)[C@H](CCCCN)NC(=O)[C@@H](NC(=O)[C@H](Cc1ccc(O)cc1)NC(=O)[C@H](CC(N)=O)NC(=O)[C@H](CCC(=O)O)NC(=O)[C@@H](NC(=O)[C@H](Cc1ccccc1)NC(=O)[C@@H](NC(=O)[C@H](C)NC(=O)[C@H](CC(=O)O)NC(=O)[C@H](C)NC(=O)[C@H](Cc1c[nH]cn1)NC(C)=O)C(C)C)[C@@H](C)O)[C@@H](C)O)C(=O)N[C@@H](C)C(=O)N[C@@H](C)C(=O)N[C@@H](CCCCN)C(=O)N[C@H]1CCCCNC(=O)C[C@@H](C(=O)N[C@@H](CC(C)C)C(=O)N[C@@H](CCCCN)C(=O)N[C@@H](CCCCN)C(=O)NCC(=O)NCC(=O)N[C@H](C(N)=O)[C@@H](C)O)NC(=O)[C@H](CC(N)=O)NC(=O)[C@H](CC(C)C)NC(=O)[C@H](Cc2ccc(O)cc2)NC1=O` [SEQ ID NO:51, Ac-[Ala^2,Glu^8,Lys^12,Nle^17,Ala^19,Asp^25,Leu^26,Lys^27,28,Gly^29,30,Thr^31]-VIP cyclo (Lys^21 →Asp^25)] (Ac-HADAVFTENYTKLRKQ[Nle]AAKKYLNDLKKGGT-NH2; lactam 21-25) had an EC50 in assay [1] of 920 pM. Besides, in assay [2], the “Bronchodilator activity of VIP analogs in guinea pigs, ED50” value (shortened to “Bronchodilator activity of VIP analogs”) is 0.1 μg.

For `CCCC[C@H](NC(=O)[C@H](CCC(N)=O)NC(=O)[C@H](CCCCN)NC(=O)[C@H](CCCNC(=N)N)NC(=O)[C@H](CC(C)C)NC(=O)[C@H](CCCCN)NC(=O)[C@@H](NC(=O)[C@H](Cc1ccc(O)cc1)NC(=O)[C@H](CC(N)=O)NC(=O)[C@H](CCC(=O)O)NC(=O)[C@@H](NC(=O)[C@H](Cc1ccccc1)NC(=O)[C@@H](NC(=O)[C@H](C)NC(=O)[C@H](CC(=O)O)NC(=O)[C@H](CO)NC(=O)[C@H](Cc1c[nH]cn1)NC(C)=O)C(C)C)[C@@H](C)O)[C@@H](C)O)C(=O)N[C@@H](C)C(=O)N[C@@H](C)C(=O)N[C@@H](CCCCN)C(=O)N[C@H]1CCCCNC(=O)C[C@@H](C(=O)N[C@@H](CC(C)C)C(=O)N[C@@H](CCCCN)C(=O)N[C@@H](CCCCN)C(=O)NCC(=O)NCC(=O)N[C@H](C(N)=O)[C@@H](C)O)NC(=O)[C@H](CC(N)=O)NC(=O)[C@H](CC(C)C)NC(=O)[C@H](Cc2ccc(O)cc2)NC1=O` [SEQ ID NO:52, Ac-[Glu^8,Lys^12,Nle^17,Ala^19,Asp^25,Leu^26,Lys^27,28,Gly^29,30,Thr^31]-VIP cyclo (Lys^21 →Asp^25)] (Ac-HSDAVFTENYTKLRKQ[Nle]AAKKYLNDLKKGGT-NH2; lactam 21-25), the EC50 in assay [1] is 350 pM. Also, the “Bronchodilator activity of VIP analogs” value in assay [2] was 0.1 μg.

For the compound `CCCC[C@H](NC(=O)[C@H](CCC(N)=O)NC(=O)[C@H](CCCCN)NC(=O)[C@H](CCCNC(=N)N)NC(=O)[C@H](CC(C)C)NC(=O)[C@H](CCCCN)NC(=O)[C@@H](NC(=O)[C@H](Cc1ccc(O)cc1)NC(=O)[C@H](CC(N)=O)NC(=O)[C@H](CCC(=O)O)NC(=O)[C@@H](NC(=O)[C@H](Cc1ccccc1)NC(=O)[C@@H](NC(=O)[C@H](C)NC(=O)[C@H](CC(=O)O)NC(=O)[C@H](C)NC(=O)[C@H](Cc1c[nH]cn1)NC(C)=O)C(C)C)[C@@H](C)O)[C@@H](C)O)C(=O)N[C@@H](C)C(=O)N[C@@H](C)C(=O)N[C@@H](CCCCN)C(=O)N[C@H]1CCCCNC(=O)C[C@@H](C(=O)N[C@@H](CC(C)C)C(=O)N[C@@H](CCCCN)C(=O)N[C@@H](CCCCN)C(N)=O)NC(=O)[C@H](CC(N)=O)NC(=O)[C@H](CC(C)C)NC(=O)[C@H](Cc2ccc(O)cc2)NC1=O` [SEQ ID NO:53, Ac-[Ala^2,Glu^8,Lys^12,Nle^17,Ala^19,Asp^25,Leu^26,Lys^27,28]-VIP cyclo (Lys^21 →Asp^25)] (Ac-HADAVFTENYTKLRKQ[Nle]AAKKYLNDLKK-NH2; lactam 21-25), in assay [1], the concentration giving a half-maximal response (EC50) came to 780 pM. Besides, the “Bronchodilator activity of VIP analogs” value in assay [2] was 0.14 μg.

`CCCC[C@H](NC(=O)[C@H](CCC(N)=O)NC(=O)[C@H](CCCCN)NC(=O)[C@H](CCCNC(=N)N)NC(=O)[C@H](CC(C)C)NC(=O)[C@H](CCCCN)NC(=O)[C@@H](NC(=O)[C@H](Cc1ccc(N)cc1)NC(=O)[C@H](CC(N)=O)NC(=O)[C@H](CC(=O)O)NC(=O)[C@@H](NC(=O)[C@H](Cc1ccccc1)NC(=O)[C@@H](NC(=O)[C@H](C)NC(=O)[C@H](CC(=O)O)NC(=O)[C@H](CO)NC(=O)[C@H](Cc1c[nH]cn1)NC(C)=O)C(C)C)[C@@H](C)O)[C@@H](C)O)C(=O)N[C@@H](C)C(=O)N[C@@H](C)C(=O)N[C@@H](CCCCN)C(=O)N[C@H]1CCCCNC(=O)C[C@@H](C(=O)N[C@H](C(=O)N[C@@H](CC(C)C)C(=O)N[C@H](C(N)=O)[C@@H](C)O)C(C)C)NC(=O)[C@H](CC(N)=O)NC(=O)[C@H](CC(C)C)NC(=O)[C@H](Cc2ccc(O)cc2)NC1=O` [SEQ ID NO:54, Ac-[p-NH2 -Phe^10,Lys^12,Nle^17,Ala^19,Asp^25,Val^26,Thr^28]-VIP cyclo (Lys^21 →Asp^25)] (Ac-HSDAVFTDN[Phe(4-NH2)]TKLRKQ[Nle]AAKKYLNDVLT-NH2; lactam 21-25) came in with an EC50 in assay [1] of 960 pM. In addition, the “Bronchodilator activity of VIP analogs” value in assay [2] was 0.35 μg.

For `CCCC[C@H](NC(=O)[C@H](CCC(N)=O)NC(=O)[C@H](CCCCN)NC(=O)[C@H](CCCNC(=N)N)NC(=O)[C@H](CC(C)C)NC(=O)[C@H](CCCCN)NC(=O)[C@@H](NC(=O)[C@H](Cc1ccc(O)cc1)NC(=O)[C@H](CC(N)=O)NC(=O)[C@H](CC(=O)O)NC(=O)[C@@H](NC(=O)[C@H](Cc1ccccc1)NC(=O)[C@@H](NC(=O)[C@H](C)NC(=O)[C@H](CC(=O)O)NC(=O)[C@H](CO)NC(=O)[C@H](Cc1c[nH]cn1)NC(C)=O)C(C)C)[C@@H](C)O)[C@@H](C)O)C(=O)N[C@@H](C)C(=O)N[C@@H](C)C(=O)N[C@@H](CCCCN)C(=O)N[C@H]1CCCCNC(=O)C[C@@H](C(=O)N[C@H](C(=O)N[C@@H](CC(C)C)C(=O)N[C@H](C(N)=O)[C@@H](C)O)C(C)C)NC(=O)[C@H](CC(N)=O)NC(=O)[C@H](CC(C)C)NC(=O)[C@H](Cc2ccc(O)c(OC)c2)NC1=O` [SEQ ID NO:55, Ac-[Lys^12,Nle^17,Ala^19,m-OCH3 -Tyr^22,Asp^25,Val^26,Thr^28]-VIP cyclo (Lys^21 →Asp^25)] (Ac-HSDAVFTDNYTKLRKQ[Nle]AAKK[Tyr(3-OMe)]LNDVLT-NH2; lactam 21-25), the response in assay [1] was half-maximal at 310 pM (EC50). In addition, in assay [2], the “Bronchodilator activity of VIP analogs” value worked out at 0.14 μg.

Consider `CCCC[C@H](NC(=O)[C@H](CCC(N)=O)NC(=O)[C@H](CCCCN)NC(=O)[C@H](CCCNC(=N)N)NC(=O)[C@H](CC(C)C)NC(=O)[C@H](CCCCN)NC(=O)[C@@H](NC(=O)[C@H](Cc1ccc(O)cc1)NC(=O)[C@H](CC(N)=O)NC(=O)[C@H](CC(=O)O)NC(=O)[C@@H](NC(=O)[C@H](Cc1ccccc1)NC(=O)[C@@H](NC(=O)[C@H](C)NC(=O)[C@H](CC(=O)O)NC(=O)[C@H](CO)NC(=O)[C@H](Cc1c[nH]cn1)NC(C)=O)C(C)C)[C@@H](C)O)[C@@H](C)O)C(=O)N[C@@H](C)C(=O)N[C@@H](C)C(=O)N[C@@H](CCCCN)C(=O)N[C@H]1CCCCNC(=O)C[C@@H](C(=O)N[C@H](C(=O)N[C@@H](CC(C)C)C(=O)N[C@H](C(N)=O)[C@@H](C)O)C(C)C)NC(=O)[C@H](CC(N)=O)NC(=O)[C@H](CC(C)C)NC(=O)[C@H](Cc2ccc(O)c(F)c2)NC1=O` [SEQ ID NO:56, Ac-[Lys^12,Nle^17,Ala^19,m-F-L-Tyr^22,Asp^25,Val^26,Thr^28]-VIP cyclo (Lys^21 →Asp^25)] (Ac-HSDAVFTDNYTKLRKQ[Nle]AAKK[Tyr(3-F)]LNDVLT-NH2; lactam 21-25), for which it took 520 pM to reach a half-maximal effect in assay [1] (EC50). In addition, the “Bronchodilator activity of VIP analogs” value in assay [2] is reported as 7.2 μg.

Compound `CCCC[C@H](NC(=O)[C@H](CCC(N)=O)NC(=O)[C@H](CCCCN)NC(=O)[C@H](CCCNC(=N)N)NC(=O)[C@H](CC(C)C)NC(=O)[C@H](CCCCN)NC(=O)[C@@H](NC(=O)[C@H](Cc1ccc(O)cc1)NC(=O)[C@H](CC(N)=O)NC(=O)[C@H](CCC(=O)O)NC(=O)[C@@H](NC(=O)[C@H](Cc1ccccc1)NC(=O)[C@@H](NC(=O)[C@H](C)NC(=O)[C@H](CC(=O)O)NC(=O)[C@H](CO)NC(=O)[C@H](Cc1c[nH]cn1)NC(C)=O)C(C)C)[C@@H](C)O)[C@@H](C)O)C(=O)N[C@@H](C)C(=O)N[C@@H](C)C(=O)N[C@@H](CCCCN)C(=O)N[C@H]1CCCCNC(=O)C[C@@H](C(=O)N[C@@H](CC(C)C)C(=O)N[C@@H](CCCCN)C(=O)N[C@@H](CCCCN)C(N)=O)NC(=O)[C@H](CC(N)=O)NC(=O)[C@H](CC(C)C)NC(=O)[C@H](Cc2ccc(O)c(OC)c2)NC1=O` [SEQ ID NO:57, Ac-[Glu^8,Lys^12,Nle^17,Ala^19,m-OCH3 -Tyr^22,Asp^25,Leu^26,Lys^27,28]-VIP cyclo (Lys^21 →Asp^25)] (Ac-HSDAVFTENYTKLRKQ[Nle]AAKK[Tyr(3-OMe)]LNDLKK-NH2; lactam 21-25) returned an EC50 in assay [1] of 290 pM. Also, the “Bronchodilator activity of VIP analogs” value in assay [2] is given as 0.019 μg.

In turn, `CCCC[C@H](NC(=O)[C@H](CCC(N)=O)NC(=O)[C@H](CCCCN)NC(=O)[C@H](CCCNC(=N)N)NC(=O)[C@H](CC(C)C)NC(=O)[C@H](CCCCN)NC(=O)[C@@H](NC(=O)[C@H](Cc1ccc(O)cc1)NC(=O)[C@H](CC(N)=O)NC(=O)[C@H](CCC(=O)O)NC(=O)[C@@H](NC(=O)[C@H](Cc1ccccc1)NC(=O)[C@@H](NC(=O)[C@H](C)NC(=O)[C@H](CC(=O)O)NC(=O)[C@H](CO)NC(=O)[C@H](Cc1c[nH]cn1)NC(C)=O)C(C)C)[C@@H](C)O)[C@@H](C)O)C(=O)N[C@@H](C)C(=O)N[C@@H](C)C(=O)N[C@@H](CCCCN)C(=O)N[C@H]1CCCCNC(=O)C[C@@H](C(=O)N[C@@H](CC(C)C)C(=O)N[C@@H](CCCCN)C(=O)N[C@@H](CCCCN)C(N)=O)NC(=O)[C@H](CC(N)=O)NC(=O)[C@H](CC(C)C)NC(=O)[C@H](Cc2ccc(O)c(F)c2)NC1=O` [SEQ ID NO:58, Ac-[Glu^8,Lys^12,Nle^17,Ala^19,m-F-L-Tyr^22,Asp^25,Leu^26,Lys^27,28]-VIP cyclo (Lys^21 →Asp^25)] (Ac-HSDAVFTENYTKLRKQ[Nle]AAKK[Tyr(3-F)]LNDLKK-NH2; lactam 21-25) came in with an EC50 in assay [1] of 310 pM. Moreover, the “Bronchodilator activity of VIP analogs” value in assay [2] came to 0.03 μg.
